Assay [1] relates to Akt phosphorylation (Ser473) in MCF7 cells. The assay is described as follows: Cellular PI3K/Akt pathway assay (Phospho-Akt1 (Ser473) sandwich ELISA). The settings on record: Homo sapiens, β-Heregulin stimulated, 48 h incubation, read-out: IC50 p-Akt (Biological Assay 5.0). Format: cell-based. (An ELISA detects its analyte on a solid surface through an enzyme-linked reagent.)
Experimental: Biological Assay 5.0: Cellular PI3K/Akt Pathway Assay
In order to study the cellular activity of the compounds according to the present invention, an Enzyme Linked Immunosorbent Assay (ELISA)-based assay may be used to investigate the inhibitory effect on Akt phosphorylation.
The ELISA Kit detects endogenous levels of phosphorylated Akt protein. […] After incubation with cell lysates, the coated antibody captures the phosphorylated Akt protein. […] The magnitude of optical density for this developed color is proportional to the quantity of phosphorylated Akt protein. MCF7 cells (ATCC HTB-22) are seeded into 96 well fate bottom plates at a density of 10000 cells/well. 24 hours after seeding, the cells are serum starved using low-serum medium (IMEM media including 0.1% charcoal treated FCS (FCS: fetal calf serum)). After 24 hours 1 μl each of the compound dilutions (test compounds were dissolved as 10 mM solutions in dimethylsulfoxide (DMSO) and subsequently diluted) are added into each well of the 96 well plates and incubated for 48 h at 37° C. in a humidified athmosphere containing 5% CO2. To stimulate Akt phosphorylation, β-Heregulin (20 ng/mL β-HRG) is added in parallel to the compounds. Wells containing unstimulated control cells (no β-Heregulin stimulation) are incubated with or without the diluted compound. Wells containing untreated control cells (no compound) are filled with medium containing 0.5% v:v DMSO and are or are not stimulated with 3-Heregulin.
Cells are harvested and lysed with brief sonification in 1× cell lysis buffer (20 mM Tris (pH7.5), 150 mM NaCl, 1 mM ethylene diaminetetraacetate (EDTA), 1 mM ethylene glycolbis(2-aminoethyl)-N,N,N′,N′-tetraacetic acid (EGTA), 1 vol % Triton X-100, 2.5 mM sodium pyrophosphate, 1 mM β-glycerolphosphate, 1 mM Na3VO4, 1 μg/mL leupeptin). The lysate is centrifuged for 10 min. at 4° C. and the supernatant is transferred to a new tube. […] The absorbance is measured at λ=450 nm (Wallac Victor2; Perkin Elmer, USA) within 30 min. after adding the STOP solution. […]
The target in assay [2] is T1, human recombinant kinase full-length Akt1 (Homo sapiens, UniProt P31749).
T1 construct: human recombinant kinase full-length Akt1; His; purchased Invitrogen PV 3599; host or cells: insect cells
T1 sequence (P31749 whole entry): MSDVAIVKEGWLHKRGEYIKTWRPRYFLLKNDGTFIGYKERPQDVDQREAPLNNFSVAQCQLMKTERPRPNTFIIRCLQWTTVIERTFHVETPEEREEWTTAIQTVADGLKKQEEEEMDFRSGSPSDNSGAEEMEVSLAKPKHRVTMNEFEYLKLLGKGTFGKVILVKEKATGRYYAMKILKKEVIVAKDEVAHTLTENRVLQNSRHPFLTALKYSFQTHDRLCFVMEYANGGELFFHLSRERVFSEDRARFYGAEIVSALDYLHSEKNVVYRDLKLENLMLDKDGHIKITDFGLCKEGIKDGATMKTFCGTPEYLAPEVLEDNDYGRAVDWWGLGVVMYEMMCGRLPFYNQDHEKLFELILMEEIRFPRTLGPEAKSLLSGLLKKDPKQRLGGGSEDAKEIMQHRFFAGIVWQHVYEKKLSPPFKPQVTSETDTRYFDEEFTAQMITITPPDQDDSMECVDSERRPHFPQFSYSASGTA
The assay is described as follows: Akt1 kinase assay (TR-FRET). Format: biochemical. The settings on record: 10 μM ATP, 1 μM peptide substrate, 60 min at 22° C.; read-out: IC50 Akt1 Biological Assay 1.0). The source says:
Biological Assay 1.0: Akt1 Kinase Assay
Akt1 inhibitory activity of compounds of the present invention may be quantified employing the Akt1 TR-FRET assay as described in the following paragraphs.
His-tagged human recombinant kinase full-length Akt1 expressed in insect cells was purchased form Invitrogen (part number PV 3599). As substrate for the kinase reaction the biotinylated peptide biotin-Ahx-KKLNRTLSFAEPG (C-terminus in amide form) was used which can be purchased e.g. from the company Biosynthan GmbH (Berlin-Buch, Germany).
(§1) For the assay 50 nl of a 100 fold concentrated solution of the test compound in DMSO was pipetted into a black low volume 384 well microtiter plate (Greiner Bio-One, Frickenhausen, Germany), 2 μl of a solution of Akt1 in assay buffer [50 mM TRIS/HCl pH 7.5, 5 mM MgCl2, 1 mM dithiothreitol, 0.02% (v/v) Triton X-100 (Sigma)] were added and the mixture was incubated for 15 min at 22° C. to allow pre-binding of the test compounds to the enzyme before the start of the kinase reaction. Then the kinase reaction was started by the addition of 3 μl of a solution of adenosine-tri-phosphate (ATP, 16.7 μM=>final conc. in the 5 μl assay volume is 10 μM) and substrate (1.67 μM=>final conc. in the 5 μl assay volume is 1 μM) in assay buffer and the resulting mixture was incubated for a reaction time of 60 min at 22° C. The concentration of Akt1 in the assay was adjusted depending of the activity of the enzyme lot and was chosen appropriate to have the assay in the linear range, typical enzyme concentrations were in the range of about 0.05 ng/μl (final conc. in the 5 μl assay volume).
(§2) The reaction was stopped by the addition of 5 μl of a solution of HTRF detection reagents (200 nM streptavidine-XL665 [Cisbio] and 1.5 nM anti-phosho-Serine antibody [Millipore, cat. #35-001] and 0.75 nM LANCE Eu-W 1024 labeled anti-mouse IgG antibody [Perkin Elmer]) in an aqueous EDTA-solution (100 mM EDTA, 0.1% (w/v) bovine serum albumin in 50 mM HEPES/NaOH pH 7.5). The resulting mixture was incubated 1 h at 22° C. to allow the binding of the biotinylated phosphorylated peptide to the streptavidine-XL665 and the antibodies. Subsequently the amount of phosphorylated substrate was evaluated by measurement of the resonance energy transfer from the anti-mouse-IgG-Eu-Chelate to the streptavidine-XL665. Therefore, the fluorescence emissions at 620 nm and 665 nm after excitation at 350 nm was measured in a HTRF reader, e.g. a Rubystar (BMG Labtechnologies, Offenburg, Germany) or a Viewlux (Perkin-Elmer). The ratio of the emissions at 665 nm and at […] was taken as the measure for the amount of phosphorylated substrate. The data were normalised (enzyme reaction without inhibitor=0% inhibition, all other assay components but no enzyme=100% inhibition). Normally test compound were tested on the same microtiter plate at 10 different concentrations in the range of 20 μM to 1 nM (20 μM, 6.7 μM, 2.2 μM, 0.74 μM, 0.25 μM, 82 nM, 27 nM, 9.2 nM, 3.1 nM and 1 nM, dilution series prepared before the assay at the level of the 100 fold conc. stock solutions by serial 1:3 dilutions) in duplicate values for each concentration and 1050 values were calculated by a 4 parameter fit using an inhouse software.
(In general: Time-resolved FRET reads energy transfer from a long-lived donor to a nearby acceptor.)

The target in assay [3] is T2, human recombinant kinase full-length Akt2 (Homo sapiens, UniProt P31751).
T2 construct: human recombinant kinase full-length Akt2; His; purchased Invitrogen PV 3975; host or cells: insect cells
T2 sequence (P31751 whole entry): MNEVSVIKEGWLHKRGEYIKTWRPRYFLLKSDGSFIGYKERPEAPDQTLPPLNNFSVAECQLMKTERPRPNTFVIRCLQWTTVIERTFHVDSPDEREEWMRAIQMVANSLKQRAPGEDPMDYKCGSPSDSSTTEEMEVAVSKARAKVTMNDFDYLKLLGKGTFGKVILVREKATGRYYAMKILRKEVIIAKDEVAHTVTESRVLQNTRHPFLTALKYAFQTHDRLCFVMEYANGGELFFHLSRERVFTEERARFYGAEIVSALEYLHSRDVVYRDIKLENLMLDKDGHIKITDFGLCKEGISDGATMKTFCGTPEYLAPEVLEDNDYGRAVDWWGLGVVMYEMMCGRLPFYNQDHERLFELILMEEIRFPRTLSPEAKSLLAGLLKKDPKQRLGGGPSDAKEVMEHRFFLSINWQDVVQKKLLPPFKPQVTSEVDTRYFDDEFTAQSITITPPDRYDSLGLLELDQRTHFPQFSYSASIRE
The assay can be described thus: Akt2 kinase assay (TR-FRET). Format: biochemical. The settings on record: Akt2 activated by PDK1, 10 μM ATP, 1 μM peptide substrate, 60 min at 22° C.; read-out: IC50 Akt2 (Biological Assay 2.0).
Source text: Biological Assay 2.0: Akt2 Kinase Assay
Akt2 inhibitory activity of compounds of the present invention was quantified employing the Akt2 TR-FRET assay as described in the following paragraphs.
as §1, with “His-tagged human recombinant kinase full-length Akt2 expressed in insect cells and activated by PDK1 was purchased form Invitrogen (part number PV 3975). As substrate for the kinase reaction the biotinylated peptide biotin-Ahx-KKLNRTLSFAEPG (C-terminus in amide form) was used which can be purchased e.g. from the company Biosynthan GmbH (Berlin-Buch, Germany). For” for “For”, “Akt2” for “Akt1”, “0.2” for “0.05”
as §2, with “a TR-FRET” for “a HTRF”, “inhibition).” for “inhibition). Normally test compound were tested on the same microtiter plate at 10 different concentrations in the range of 20 μM to 1 nM (20 μM, 6.7 μM, 2.2 μM, 0.74 μM, 0.25 μM, 82 nM, 27 nM, 9.2 nM, 3.1 nM and 1 nM, dilution series prepared before the assay at the level of the 100 fold conc. stock solutions by serial 1:3 dilutions) in duplicate values for each concentration and 1050 values were calculated by a 4 parameter fit using an inhouse software.”

pIC50: −log10 of the molar value. Where only a bound is given, the exact number is not on record here.

14 compounds from patent US20130310362A1, “FUSED PYRIMIDINES” (BAYER PHARMA AKTIEGESELLSCHAFT, priority 2009, published 2013) can be followed below.

The pIC50 is −log10 of the IC50, conventionally taken in molar units. In the case of `Cc1nnc2c(-c3ccccc3)c(-c3ccc(CN4CCC(c5n[nH]c(-c6ccccn6)n5)CC4)cc3)ncn12` [Example 4.0, 3-methyl-8-phenyl-7-{4-[4-(5-pyridin-2-yl-1H-[1,2,4]triazol-3-yl)-piperidin-1-ylmethyl]-phenyl}-[1,2,4]triazolo[4,3-c]pyrimidine], the negative-log IC50 (pIC50) in assay [1] is greater than 6.30.
In the case of `Cc1ccc(-c2nc(C3CCN(Cc4ccc(-c5nc(C)n6ccnc6c5-c5ccccc5)cc4)CC3)n[nH]2)nc1C` [Example 5.0, 7-(4-{4-[5-(5,6-dimethyl-pyridin-2-yl)-1H-[1,2,4]triazol-3-yl]-piperidin-1-ylmethyl}-phenyl)-5-methyl-8-phenyl-imidazo[1,2-c]pyrimidine], the values for the negative-log IC50 (pIC50) in assay [2] and in assay [3] were 8.52 and 7.57, respectively.
In the same order, the values of `Cc1nc(-c2ccc(CN3CC(c4n[nH]c(-c5ccccn5)n4)C3)cc2)c(-c2ccccc2)c2nccn12` [Example 6.0, 5-methyl-8-phenyl-7-{4-[3-(5-pyridin-2-yl-1H-[1,2,4]triazol-3-yl)-azetidin-1-ylmethyl]-phenyl}-imidazo[1,2-c]pyrimidine] are 8.52 and 7.09.
On the same counts, the results for `Cc1nc(-c2ccc(CN3CCC(c4n[nH]c(-c5cnccn5)n4)CC3)cc2)c(-c2ccccc2)c2nccn12` [Example 7.0, 5-methyl-8-phenyl-7-{4-[4-(5-pyrazin-2-yl-1H-[1,2,4]triazol-3-yl)-piperidin-1-ylmethyl]-phenyl}-imidazo[1,2-c]pyrimidine] are 7.92 and 6.48.
In the same order, the values of `Cc1nc(-c2ccc(CN3CCC(c4n[nH]c(-c5ncccn5)n4)CC3)cc2)c(-c2ccccc2)c2nccn12` [Example 8.0, 5-methyl-8-phenyl-7-{4-[4-(5-pyrimidin-2-yl-1H-[1,2,4]triazol-3-yl)-piperidin-1-ylmethyl]-phenyl}-imidazo[1,2-c]pyrimidine] are 7.85 and 6.38.
Consider `Brc1ccc(-c2nc(C3CCN(Cc4ccc(-c5ncn6ccnc6c5-c5ccccc5)cc4)CC3)n[nH]2)nc1` [Example 9.0, 7-(4-{4-[5-(5-bromo-pyridin-2-yl)-1H-[1,2,4]triazol-3-yl]-piperidin-1-ylmethyl}-phenyl)-8-phenyl-imidazo[1,2-c]pyrimidine], for which the pIC50 in assay [2] is 7.74; in assay [3], 6.73.
Turning to `Cc1ccc(-c2nc(C3CCN(Cc4ccc(-c5ncn6ccnc6c5-c5ccccc5)cc4)CC3)n[nH]2)nc1C` [Example 10.0, 7-(4-{4-[5-(5,6-dimethyl-pyridin-2-yl)-1H-[1,2,4]triazol-3-yl]-piperidin-1-ylmethyl}-phenyl)-8-phenyl-imidazo[1,2-c]pyrimidine], the pIC50 is 8.15 in assay [2] and 7.42 in assay [3].
In the same order, the values of `c1ccc(-c2c(-c3ccc(CN4CCC(c5n[nH]c(-c6cnccn6)n5)CC4)cc3)ncn3ccnc23)cc1` [Example 11.0, 8-phenyl-7-{4-[4-(5-pyrazin-2-yl-1H-[1,2,4]triazol-3-yl)-piperidin-1-ylmethyl]-phenyl}-imidazo[1,2-c]pyrimidine] are 7.54 and 6.35.
In the same order, the values of `Fc1ccc(-c2nc(C3CCN(Cc4ccc(-c5ncn6ccnc6c5-c5ccccc5)cc4)CC3)n[nH]2)nc1` [Example 11.1, 7-(4-{4-[5-(5-fluoro-pyridin-2-yl)-1H-[1,2,4]triazol-3-yl]-piperidin-1-ylmethyl}-phenyl)-8-phenyl-imidazo[1,2-c]pyrimidine] are 7.72 and 7.01.
In the same order, the values of `Cc1ccc(-c2nc(C3CCN(Cc4ccc(-c5ncn6ccnc6c5-c5ccccc5)cc4)CC3)n[nH]2)nc1` [Example 12.0, 7-(4-{4-[5-(5-methyl-pyridin-2-yl)-1H-[1,2,4]triazol-3-yl]-piperidin-1-ylmethyl}-phenyl)-8-phenyl-imidazo[1,2-c]pyrimidine] are 8.10 and 7.30.
With `Clc1cccc(-c2nc(C3CCN(Cc4ccc(-c5ncn6ccnc6c5-c5ccccc5)cc4)CC3)n[nH]2)n1` [Example 13.0, 7-(4-{4-[5-(6-chloro-pyridin-2-yl)-1H-[1,2,4]triazol-3-yl]-piperidin-1-ylmethyl}-phenyl)-8-phenyl-imidazo[1,2-c]pyrimidine], the negative logarithm of the IC50 (pIC50) is 7.80 in assay [2] and 6.88 in assay [3].
`Cc1cc(C)nc(-c2nc(C3CCN(Cc4ccc(-c5ncn6ccnc6c5-c5ccccc5)cc4)CC3)n[nH]2)c1` [Example 14.0, 7-(4-{4-[5-(4,6-dimethyl-pyridin-2-yl)-1H-[1,2,4]triazol-3-yl]-piperidin-1-ylmethyl}-phenyl)-8-phenyl-imidazo[1,2-c]pyrimidine]: the pIC50 in assay [2] is 8.15; in assay [3], 7.80.
Take `FC(F)(F)c1ccnc(-c2nc(C3CCN(Cc4ccc(-c5ncn6ccnc6c5-c5ccccc5)cc4)CC3)n[nH]2)c1` [Example 15.0, 8-phenyl-7-(4-{4-[5-(4-trifluoromethyl-pyridin-2-yl)-1H-[1,2,4]triazol-3-yl]-piperidin-1-ylmethyl}-phenyl)-imidazo[1,2-c]pyrimidine]: the negative logarithm of the IC50 (pIC50) in assay [2] is 7.66; in assay [3] it was 6.65.
On the same counts, the results for `c1ccc(-c2c(-c3ccc(CN4CC(c5n[nH]c(-c6ccccn6)n5)C4)cc3)ncn3ccnc23)cc1` [Example 16.0, 8-phenyl-7-{4-[3-(5-pyridin-2-yl-1H-[1,2,4]triazol-3-yl)-azetidin-1-ylmethyl]-phenyl}-imidazo[1,2-c]pyrimidine] are 7.92 and 7.28.
